From patent publication USRE48097E1, “Cephem compounds, their production and use” (priority 2015, dated 2020)
≈ marks a conversion by molar mass, not a printed value. Like-named read-outs stand apart in the source and are kept apart here.

Tests used:
Format in all cases: cell-based
C. freundii 580 = assay: MIC against C. freundii 580; details: Table 2, C. freundii 580, Caz R, IMP S
Source text: (§1) Without limitation, the present cephem compounds alone, or in combination with one or more β-lactamase inhibitors, may provide improved antibacterial efficacy, particularly in antibiotic-resistant bacterial strains. It is believed that the present compounds may be structurally different from known compounds and, as a result, may be more basic in nature. It is an advantage that the present compounds may extend the spectrum of effective bacterial compounds, particularly against previously-resistant bacteria (e.g. ESKAPE organisms), and/or gram negative bacteria, without significant side effects. In a preferred embodiment, the present cephem compound may comprise reference compound ceftazidime, which may be used alone, or in combination with one or more β-lactamase inhibitors, such as NXL-104. As shown, the foregoing composition was tested for minimum inhibitory concentration (MIC, μg/mL) against bacteria listed in Tables 2-3.

S. aureus 3147 = assay: MIC against S. aureus 3147; details: Table 2, S. aureus 3147, MSSA
Source text: as §1

E. coli 4102 = assay: MIC against E. coli 4102; details: Table 2, E. coli 4102, CTX-M-14
Source text: as §1

S. aureus 3136 = assay: MIC against S. aureus 3136; details: Table 2, S. aureus 3136, MSSA
Source text: as §1

E. coli 4080 = assay: MIC against E. coli 4080; details: Table 2, E. coli 4080, TEM-10
Source text: as §1

S. pneumoniae 2405 = assay: MIC against S. pneumoniae 2405; details: Table 2, S. pneumoniae 2405, Pen S
Source text: as §1

K. pneumoniae 2712 = assay: MIC against K. pneumoniae 2712; details: Table 3, K. pneumoniae 2712, KPC-3, VIM-1
Description: (§2) As shown, the foregoing composition was tested for minimum inhibitory concentration (MIC, μg/mL) against bacteria listed in Tables 2-3.

E. cloacae 2705 = assay: MIC against E. cloacae 2705; details: Table 3, E. cloacae 2705, VIM-1, KPC-3type
Description: as §2

E. cloacae 566 = assay: MIC against E. cloacae 566; details: Table 2, E. cloacae 566, Caz R, IMP S
Source text: as §1

K. pneumoniae 2690 = assay: MIC against K. pneumoniae 2690; details: Table 3, K. pneumoniae 2690, KPC-2
Description: as §2

S. pneumoniae 2404 = assay: MIC against S. pneumoniae 2404; details: Table 2, S. pneumoniae 2404, Pen S
Source text: as §1

K. pneumoniae 4105 = assay: MIC against K. pneumoniae 4105; details: K. pneumoniae 4105, KPC-3, TEM-1, SHV-11
Description: as §2

E. coli 4098 = assay: MIC against E. coli 4098; details: Table 2, E. coli 4098, CTX-M-15, TEM-1
Source text: as §1

M. morganii 2409 = assay: MIC against M. morganii 2409; details: Table 2, M. morganii 2409, High level cephase, β-Lactamase producing
Source text: as §1

E. cloacae 2710 = assay: MIC against E. cloacae 2710; details: Table 3, E. cloacae 2710, KPC-3, VIM-1
Description: as §2

C. freundii 579 = assay: MIC against C. freundii 579; details: Table 2, C. freundii 579, Caz R, IMP S
Source text: as §1

S. pneumoniae 2492 = assay: MIC against S. pneumoniae 2492; details: Table 2, S. pneumoniae 2492, Pen R
Source text: as §1

S. pneumoniae ATCC 6301 = assay: MIC against S. pneumoniae ATCC 6301; details: Table 2, S. pneumoniae ATCC 6301, Pen S
Source text: as §1

C. freundii 2003 = assay: MIC against C. freundii 2003; details: Table 2, C. freundii 2003, Caz R, IMP S
Source text: as §1

K. baumanii 2579 = assay: MIC against K. baumanii 2579; details: Table 2, K. baumanii 2579, OXA-25
Source text: as §1

S. aureus 3144 = assay: MIC against S. aureus 3144; details: Table 2, S. aureus 3144, MSSA
Source text: as §1

K. pneumoniae 2711 = assay: MIC against K. pneumoniae 2711; details: Table 3, K. pneumoniae 2711, KPC-3, VIM-1
Description: as §2

K. pneumoniae 4108 = assay: MIC against K. pneumoniae 4108; details: K. pneumoniae 4108, KPC-3, TEM-166, SHV-12, SHV-141
Description: as §2

[1] = Citrobacter freundii, alone, read-out: MIC
[2] = Staphylococcus aureus, alone, read-out: MIC
[3] = Escherichia coli, alone, read-out: MIC
[4] = Streptococcus pneumoniae, alone, read-out: MIC
[5] = Klebsiella pneumoniae, alone, read-out: MIC
[6] = Enterobacter cloacae, alone, read-out: MIC
[7] = Klebsiella pneumoniae, 4105, Table 2, alone, read-out: MIC
[8] = Klebsiella pneumoniae, 4105, Table 3, alone, read-out: MIC
[9] = Morganella morganii, alone, read-out: MIC
[10] = Streptococcus pneumoniae, ATCC6301, alone, read-out: MIC
[11] = Klebsiella pneumoniae, 4108, Table 2, alone, read-out: MIC
[12] = Klebsiella pneumoniae, 4108, Table 3, alone, read-out: MIC
[13] = Table 2, in combination with NXL-104
[14] = Table 3, in combination with NXL-104

SMILES: CC(C)(O/N=C(\C(=O)N[C@@H]1C(=O)N2C(C(=O)[O-])=C(C[n+]3ccc4c(ccn4Cc4ccc(C(=N)N)cc4)c3)CS[C@H]12)c1csc(N)n1)C(=O)O [Ex-1, (6R,7R)-7-{[(2Z)-2-(2-Amino-1,3-thiazol-4-yl)-2-{[(2-carboxypropan-2-yl)oxy]imino}acetyl]-amino}-3-{[1-(4-carbamimidoylbenzyl)-1H-pyrrolo[3,2-c]pyridin-5-ium-5-yl]methyl}-8-oxo-5-thia-1-azabicyclo[4.2.0]oct-2-ene-2-carboxylate]
- MIC (C. freundii 580; [1]): 16 µg/mL
- MIC (S. aureus 3147; [2]): 2 µg/mL
- MIC (E. coli 4102; [3]): 1 µg/mL
- MIC (S. aureus 3136; [2]): 2 µg/mL
- MIC (E. coli 4080; [3]): 4 µg/mL
- MIC (S. pneumoniae 2405; [4]): ≤ 0.06 µg/mL
- MIC (K. pneumoniae 2712; [5]): > 32 µg/mL
- MIC (E. cloacae 2705; [6]): > 32 µg/mL
- MIC (E. cloacae 566; [6]): 4 µg/mL
- MIC (K. pneumoniae 2690; [5]): 32 µg/mL (≈ 44.6 µM)
- MIC (S. pneumoniae 2404; [4]): 0.25 µg/mL
- MIC (K. pneumoniae 4105; [7]): 16 µg/mL (≈ 22.3 µM)
- MIC (K. pneumoniae 4105; [8]): 32 µg/mL (≈ 44.6 µM)
- MIC (E. coli 4098; [3]): 4 µg/mL
- MIC (M. morganii 2409; [9]): 8 µg/mL
- MIC (E. cloacae 2710; [6]): > 32 µg/mL
- MIC (C. freundii 579; [1]): 4 µg/mL
- MIC (S. pneumoniae 2492; [4]): 2 µg/mL
- MIC (S. pneumoniae ATCC 6301; [10]): ≤ 0.06 µg/mL
- MIC (C. freundii 2003; [1]): 8 µg/mL
- MIC (K. baumanii 2579; alone, read-out: MIC): 32 µg/mL
- MIC (S. aureus 3144; [2]): 4 µg/mL
- MIC (K. pneumoniae 2711; [5]): 4 µg/mL (≈ 5.57 µM)
- MIC (K. pneumoniae 4108; [11]): 4 µg/mL (≈ 5.57 µM)
- MIC (K. pneumoniae 4108; [12]): 32 µg/mL (≈ 44.6 µM)

SMILES: CC(C)(O/N=C(\C(=O)N[C@@H]1C(=O)N2C(C(=O)[O-])=C(C[n+]3ccc4n3CCN4Cc3ccc(C(=N)N)cc3)CS[C@H]12)c1csc(N)n1)C(=O)O [Example 2, (6R,7R)-7-{[(2Z)-2-(2-Amino-1,3-thiazol-4-yl)-2-{[(2-carboxypropan-2-yl)oxy]imino}acetyl]amino}-3-{[1-(4-carbamimidoylbenzyl)-2,3-dihydro-1H-imidazo[1,2-b]pyrazol-5-ium-5-yl]methyl}-8-oxo-5-thia-1-azabicyclo[4.2.0]oct-2-ene-2-carboxylate]
- MIC (C. freundii 580; [1]): 4 µg/mL
- MIC (C. freundii 580; in combination with NXL-104): 0.50 µg/mL
- MIC (S. aureus 3147; [2]): 2 µg/mL
- MIC (S. aureus 3147; in combination with NXL-104): 2.00 µg/mL
- MIC (E. coli 4102; [3]): 1 µg/mL
- MIC (E. coli 4102; in combination with NXL-104): 0.12 µg/mL
- MIC (S. aureus 3136; [2]): 2 µg/mL
- MIC (S. aureus 3136; in combination with NXL-104): 2.00 µg/mL
- MIC (E. coli 4080; [3]): 8 µg/mL
- MIC (E. coli 4080; in combination with NXL-104): 1.00 µg/mL
- MIC (S. pneumoniae 2405; [4]): 0.12 µg/mL
- MIC (S. pneumoniae 2405; in combination with NXL-104): ≤0.06 µg/mL
- MIC (K. pneumoniae 2712; [5]): > 32 µg/mL
- MIC (K. pneumoniae 2712; in combination with NXL-104): 4 µg/mL
- MIC (E. cloacae 2705; [6]): > 32 µg/mL
- MIC (E. cloacae 2705; in combination with NXL-104): >32 µg/mL
- MIC (E. cloacae 566; [6]): 0.5 µg/mL
- MIC (E. cloacae 566; in combination with NXL-104): 0.25 µg/mL
- MIC (K. pneumoniae 2690; [5]): 32 µg/mL (≈ 45.1 µM)
- MIC (K. pneumoniae 2690; in combination with NXL-104): 2 µg/mL
- MIC (S. pneumoniae 2404; [4]): 0.25 µg/mL
- MIC (S. pneumoniae 2404; in combination with NXL-104): 0.25 µg/mL
- MIC (K. pneumoniae 4105; [7]): 32 µg/mL (≈ 45.1 µM)
- MIC (K. pneumoniae 4105; [8]): > 32 µg/mL
- MIC (K. pneumoniae 4105; [13]): 2.00 µg/mL
- MIC (K. pneumoniae 4105; [14]): 2 µg/mL
- MIC (E. coli 4098; [3]): 1 µg/mL
- MIC (E. coli 4098; in combination with NXL-104): 0.25 µg/mL
- MIC (M. morganii 2409; [9]): 8 µg/mL
- MIC (M. morganii 2409; in combination with NXL-104): 1.00 µg/mL
- MIC (E. cloacae 2710; [6]): > 32 µg/mL
- MIC (E. cloacae 2710; in combination with NXL-104): >32 µg/mL
- MIC (C. freundii 579; [1]): 2 µg/mL
- MIC (C. freundii 579; in combination with NXL-104): 0.50 µg/mL
- MIC (S. pneumoniae 2492; [4]): 8 µg/mL
- MIC (S. pneumoniae 2492; in combination with NXL-104): 8.00 µg/mL
- MIC (S. pneumoniae ATCC 6301; [10]): ≤ 0.06 µg/mL
- MIC (S. pneumoniae ATCC 6301; in combination with NXL-104): ≤0.06 µg/mL
- MIC (C. freundii 2003; [1]): 2 µg/mL
- MIC (C. freundii 2003; in combination with NXL-104): 0.50 µg/mL
- MIC (K. baumanii 2579; alone, read-out: MIC): > 32 µg/mL
- MIC (K. baumanii 2579; in combination with NXL-104): 32.00 µg/mL
- MIC (S. aureus 3144; [2]): 4 µg/mL
- MIC (S. aureus 3144; in combination with NXL-104): 4.00 µg/mL
- MIC (K. pneumoniae 2711; [5]): 4 µg/mL (≈ 5.64 µM)
- MIC (K. pneumoniae 2711; in combination with NXL-104): 0.5 µg/mL
- MIC (K. pneumoniae 4108; [11]): 4 µg/mL (≈ 5.64 µM)
- MIC (K. pneumoniae 4108; [12]): > 32 µg/mL
- MIC (K. pneumoniae 4108; [13]): 1.00 µg/mL
- MIC (K. pneumoniae 4108; [14]): 2 µg/mL
